Data taken from article PMC11480411, “Mucosal sugars delineate pyrazine vs pyrazinone autoinducer signaling in Klebsiella oxytoca” (Nature Communications, 2024).

Key:
Experiment in all cases: PRESTO-Tango GPCR screen
Type in all cases: cell-based
Settings in all cases: 100 µM
CYSLTR2 = target: T1, CYSLTR2 (Homo sapiens, UniProt Q9NS75)
T1 construct: purchased PRESTO-Tango GPCR kit (Roth lab / Addgene)
Description: (§1) The PRESTO-Tango analyses were performed as previously published. Briefly, HTLA cells, a HEK293 cell line that stably expresses β-arrestin-TEV and tTA-Luciferase (a kind gift from Gilad Barnea, Brown University), were plated in 96-well tissue culture plates (Eppendorf) in DMEM containing 10% FBS and 1% Penicillin/Streptomycin. One day after plating (after reaching approximately 90% confluence), 200 ng per well GPCR-Tango plasmids[37] in 20 μL DMEM were individually mixed with 400 ng polyethylenimine (Polysciences) in an equal volume of DMEM and incubated for 20 min at room temperature before adding the transfection mixture to the HTLA cells. 16-24 h after transfection, medium was replaced with 180 μL fresh DMEM containing 1% Penicillin/Streptomycin and 10 mM HEPES and 20 μL of 3 or 3-Homo to reach a final concentration of 100 μM. Supernatants were aspirated 20 h after stimulation and 50 μl per well of Bright-Glo solution (Promega) diluted 20-fold with PBS containing 20 mM HEPES was added into each well. After 15 min incubation at room temperature, luminescence was quantified using a Spectramax i3x microplate reader (Molecular Devices). Activation fold for each sample was calculated by dividing relative luminescence units (RLU) for each condition by RLUs from PBS control. Dose response curves of each chemical were performed in a similar way with varying the ligand concentration from 10^−4 M to 10^−15 M.

CNR2 = target: T2, CNR2 (Homo sapiens, UniProt P34972)
T2 construct: purchased PRESTO-Tango GPCR kit (Roth lab / Addgene)
Description: as §1

GRPR = target: T3, GRPR (Homo sapiens, UniProt P30550)
T3 construct: purchased PRESTO-Tango GPCR kit (Roth lab / Addgene)
Description: as §1

GPR97 = target: T4, GPR97 (Homo sapiens, UniProt Q86Y34)
T4 construct: purchased PRESTO-Tango GPCR kit (Roth lab / Addgene)
Description: as §1

LPAR6 = target: T5, LPAR6 (Homo sapiens, UniProt P43657)
T5 construct: purchased PRESTO-Tango GPCR kit (Roth lab / Addgene)
T5 sequence (P43657 whole entry): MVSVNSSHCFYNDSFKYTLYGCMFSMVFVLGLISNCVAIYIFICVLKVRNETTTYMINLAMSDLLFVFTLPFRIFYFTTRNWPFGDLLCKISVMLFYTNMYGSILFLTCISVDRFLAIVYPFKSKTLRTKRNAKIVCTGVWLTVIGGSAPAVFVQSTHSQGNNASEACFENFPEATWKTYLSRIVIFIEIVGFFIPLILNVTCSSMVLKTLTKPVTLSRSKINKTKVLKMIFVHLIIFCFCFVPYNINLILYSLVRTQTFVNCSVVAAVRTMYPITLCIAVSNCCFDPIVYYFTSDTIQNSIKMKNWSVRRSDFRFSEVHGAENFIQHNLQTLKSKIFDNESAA
Description: as §1

SSTR5 = target: T6, SSTR5 (Homo sapiens, UniProt P35346)
T6 construct: purchased PRESTO-Tango GPCR kit (Roth lab / Addgene)
T6 sequence (P35346 whole entry): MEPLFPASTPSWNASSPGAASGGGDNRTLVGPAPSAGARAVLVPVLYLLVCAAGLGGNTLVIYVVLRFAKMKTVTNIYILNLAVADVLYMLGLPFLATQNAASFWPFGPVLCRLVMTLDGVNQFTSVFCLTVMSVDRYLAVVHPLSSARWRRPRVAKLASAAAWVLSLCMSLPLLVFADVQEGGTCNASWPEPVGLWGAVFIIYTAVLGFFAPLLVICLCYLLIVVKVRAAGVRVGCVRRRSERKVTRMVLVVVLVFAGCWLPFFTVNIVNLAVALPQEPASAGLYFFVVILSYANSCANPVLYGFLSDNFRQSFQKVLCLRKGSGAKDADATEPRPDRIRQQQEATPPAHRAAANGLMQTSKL
Description: as §1

LPAR5 = target: T7, LPAR5 (Homo sapiens, UniProt Q9H1C0)
T7 construct: purchased PRESTO-Tango GPCR kit (Roth lab / Addgene)
Description: as §1

HTR1F = target: T8, HTR1F (Homo sapiens, UniProt P30939)
T8 construct: purchased PRESTO-Tango GPCR kit (Roth lab / Addgene)
Description: as §1

CXCR7 = target: T9, CXCR7 (Homo sapiens, UniProt P25106)
T9 construct: purchased PRESTO-Tango GPCR kit (Roth lab / Addgene)
T9 sequence (P25106 whole entry): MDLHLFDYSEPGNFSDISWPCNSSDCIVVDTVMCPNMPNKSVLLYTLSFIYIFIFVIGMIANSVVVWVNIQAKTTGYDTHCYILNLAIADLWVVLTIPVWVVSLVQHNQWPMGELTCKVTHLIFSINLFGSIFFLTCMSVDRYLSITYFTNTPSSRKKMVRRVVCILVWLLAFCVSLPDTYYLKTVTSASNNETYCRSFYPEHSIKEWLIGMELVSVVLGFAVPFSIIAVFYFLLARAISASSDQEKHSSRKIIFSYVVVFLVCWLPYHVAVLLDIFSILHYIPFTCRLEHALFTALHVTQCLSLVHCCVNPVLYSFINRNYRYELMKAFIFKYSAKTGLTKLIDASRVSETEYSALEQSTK
Description: as §1

UTS2R = target: T10, UTS2R (Homo sapiens, UniProt Q9UKP6)
T10 construct: purchased PRESTO-Tango GPCR kit (Roth lab / Addgene)
Description: as §1

GPR45 = target: T11, GPR45 (Homo sapiens, UniProt Q9Y5Y3)
T11 construct: purchased PRESTO-Tango GPCR kit (Roth lab / Addgene)
Description: as §1

MC1R = target: T12, MC1R (Homo sapiens, UniProt Q01726)
T12 construct: purchased PRESTO-Tango GPCR kit (Roth lab / Addgene)
Description: as §1

CALCRL = target: T13, CALCRL (Homo sapiens, UniProt Q16602)
T13 construct: purchased PRESTO-Tango GPCR kit (Roth lab / Addgene)
Description: as §1

NMBR = target: T14, NMBR (Homo sapiens, UniProt P28336)
T14 construct: purchased PRESTO-Tango GPCR kit (Roth lab / Addgene)
T14 sequence (P28336 whole entry): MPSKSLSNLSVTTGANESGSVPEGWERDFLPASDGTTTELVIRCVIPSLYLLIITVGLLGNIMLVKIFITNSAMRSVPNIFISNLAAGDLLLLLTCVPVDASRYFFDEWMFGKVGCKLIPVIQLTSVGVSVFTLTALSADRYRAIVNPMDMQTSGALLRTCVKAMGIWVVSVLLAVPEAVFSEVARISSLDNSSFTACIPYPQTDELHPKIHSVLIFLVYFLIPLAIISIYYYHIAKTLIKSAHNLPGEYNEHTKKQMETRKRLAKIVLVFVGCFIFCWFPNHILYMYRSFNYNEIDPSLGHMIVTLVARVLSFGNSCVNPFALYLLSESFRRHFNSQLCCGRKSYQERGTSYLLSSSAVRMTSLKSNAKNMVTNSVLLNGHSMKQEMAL
Description: as §1

CXCR1 = target: T15, CXCR1 (Homo sapiens, UniProt P25024)
T15 construct: purchased PRESTO-Tango GPCR kit (Roth lab / Addgene)
Description: as §1

LTB4R = target: T16, LTB4R (Homo sapiens, UniProt Q15722)
T16 construct: purchased PRESTO-Tango GPCR kit (Roth lab / Addgene)
Description: as §1

GPR152 = target: T17, GPR152 (Homo sapiens, UniProt Q8TDT2)
T17 construct: purchased PRESTO-Tango GPCR kit (Roth lab / Addgene)
Description: as §1

GPR149 = target: T18, GPR149 (Homo sapiens, UniProt Q86SP6)
T18 construct: purchased PRESTO-Tango GPCR kit (Roth lab / Addgene)
Description: as §1

CXCR2 = target: T19, CXCR2 (Homo sapiens, UniProt P25025)
T19 construct: purchased PRESTO-Tango GPCR kit (Roth lab / Addgene)
T19 sequence (P25025 whole entry): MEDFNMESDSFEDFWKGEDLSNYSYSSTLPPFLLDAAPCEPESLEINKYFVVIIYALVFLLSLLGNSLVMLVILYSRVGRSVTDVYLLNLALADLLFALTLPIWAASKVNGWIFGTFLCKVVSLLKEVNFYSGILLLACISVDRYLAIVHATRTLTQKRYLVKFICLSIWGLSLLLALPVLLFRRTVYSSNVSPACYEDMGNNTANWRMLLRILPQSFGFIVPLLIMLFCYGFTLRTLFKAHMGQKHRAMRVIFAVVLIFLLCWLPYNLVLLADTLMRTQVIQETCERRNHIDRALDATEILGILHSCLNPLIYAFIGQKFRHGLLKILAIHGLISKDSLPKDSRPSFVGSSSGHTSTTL
Description: as §1

HTR6 = target: T20, HTR6 (Homo sapiens, UniProt P50406)
T20 construct: purchased PRESTO-Tango GPCR kit (Roth lab / Addgene)
T20 sequence (P50406 whole entry): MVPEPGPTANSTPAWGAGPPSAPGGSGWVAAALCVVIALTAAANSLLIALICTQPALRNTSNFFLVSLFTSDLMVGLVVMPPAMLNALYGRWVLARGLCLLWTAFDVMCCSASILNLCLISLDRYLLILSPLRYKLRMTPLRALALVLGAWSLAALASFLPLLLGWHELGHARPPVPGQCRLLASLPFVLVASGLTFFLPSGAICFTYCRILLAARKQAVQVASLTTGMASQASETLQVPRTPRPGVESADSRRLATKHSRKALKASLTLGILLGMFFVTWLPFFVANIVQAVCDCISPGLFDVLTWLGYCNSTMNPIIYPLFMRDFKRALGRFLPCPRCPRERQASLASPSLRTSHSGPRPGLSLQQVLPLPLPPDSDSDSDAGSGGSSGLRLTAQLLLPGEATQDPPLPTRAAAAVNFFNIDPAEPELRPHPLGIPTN
Description: as §1

ADORA1 = target: T21, ADORA1 (Homo sapiens, UniProt P30542)
T21 construct: purchased PRESTO-Tango GPCR kit (Roth lab / Addgene)
Description: as §1

AVPR1B = target: T22, AVPR1B (Homo sapiens, UniProt P47901)
T22 construct: purchased PRESTO-Tango GPCR kit (Roth lab / Addgene)
Description: as §1

GPR111 = target: T23, GPR111 (Homo sapiens, UniProt Q8IZF7)
T23 construct: purchased PRESTO-Tango GPCR kit (Roth lab / Addgene)
T23 sequence (Q8IZF7 whole entry): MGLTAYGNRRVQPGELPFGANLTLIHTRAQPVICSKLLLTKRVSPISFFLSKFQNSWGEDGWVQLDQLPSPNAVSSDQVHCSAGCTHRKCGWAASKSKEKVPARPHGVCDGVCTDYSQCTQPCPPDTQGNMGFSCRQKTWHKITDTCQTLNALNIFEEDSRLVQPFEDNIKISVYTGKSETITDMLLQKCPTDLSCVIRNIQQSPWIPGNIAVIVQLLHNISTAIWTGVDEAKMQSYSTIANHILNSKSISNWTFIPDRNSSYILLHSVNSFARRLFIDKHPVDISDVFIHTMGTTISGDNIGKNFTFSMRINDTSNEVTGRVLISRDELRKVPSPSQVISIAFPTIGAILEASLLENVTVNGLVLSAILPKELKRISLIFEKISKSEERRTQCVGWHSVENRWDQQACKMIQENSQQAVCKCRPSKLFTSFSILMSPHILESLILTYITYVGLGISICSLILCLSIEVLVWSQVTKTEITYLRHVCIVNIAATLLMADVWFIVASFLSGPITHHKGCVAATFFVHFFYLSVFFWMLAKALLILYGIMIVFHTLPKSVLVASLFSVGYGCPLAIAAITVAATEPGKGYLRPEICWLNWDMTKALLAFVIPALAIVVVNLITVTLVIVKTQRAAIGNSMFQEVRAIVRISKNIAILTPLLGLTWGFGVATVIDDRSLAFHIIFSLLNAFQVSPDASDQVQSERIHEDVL
Description: as §1

GPR21 = target: T24, GPR21 (Homo sapiens, UniProt Q99679)
T24 construct: purchased PRESTO-Tango GPCR kit (Roth lab / Addgene)
Description: as §1

TAAR5 = target: T25, TAAR5 (Homo sapiens, UniProt O14804)
T25 construct: purchased PRESTO-Tango GPCR kit (Roth lab / Addgene)
Description: as §1

GPR115 = target: T26, GPR115 (Homo sapiens, UniProt Q8IZF3)
T26 construct: purchased PRESTO-Tango GPCR kit (Roth lab / Addgene)
Description: as §1

GPR182 = target: T27, GPR182 (Homo sapiens, UniProt O15218)
T27 construct: purchased PRESTO-Tango GPCR kit (Roth lab / Addgene)
Description: as §1

GNRHR = target: T28, GNRHR (Homo sapiens, UniProt P30968)
T28 construct: purchased PRESTO-Tango GPCR kit (Roth lab / Addgene)
T28 sequence (P30968 whole entry): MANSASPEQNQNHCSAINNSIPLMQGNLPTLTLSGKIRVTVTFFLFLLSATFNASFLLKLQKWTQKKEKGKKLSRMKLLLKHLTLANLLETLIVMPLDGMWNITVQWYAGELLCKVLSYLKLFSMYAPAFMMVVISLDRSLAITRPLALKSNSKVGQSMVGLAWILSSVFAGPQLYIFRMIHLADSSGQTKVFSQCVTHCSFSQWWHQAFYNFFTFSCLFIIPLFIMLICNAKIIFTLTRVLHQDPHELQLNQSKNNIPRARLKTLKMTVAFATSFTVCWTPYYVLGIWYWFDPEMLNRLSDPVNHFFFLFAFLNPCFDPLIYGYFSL
Description: as §1

NPY4R = target: T29, NPY4R (Homo sapiens, UniProt P50391)
T29 construct: purchased PRESTO-Tango GPCR kit (Roth lab / Addgene)
Description: as §1

GPR12 = target: T30, GPR12 (Homo sapiens, UniProt P47775)
T30 construct: purchased PRESTO-Tango GPCR kit (Roth lab / Addgene)
T30 sequence (P47775 whole entry): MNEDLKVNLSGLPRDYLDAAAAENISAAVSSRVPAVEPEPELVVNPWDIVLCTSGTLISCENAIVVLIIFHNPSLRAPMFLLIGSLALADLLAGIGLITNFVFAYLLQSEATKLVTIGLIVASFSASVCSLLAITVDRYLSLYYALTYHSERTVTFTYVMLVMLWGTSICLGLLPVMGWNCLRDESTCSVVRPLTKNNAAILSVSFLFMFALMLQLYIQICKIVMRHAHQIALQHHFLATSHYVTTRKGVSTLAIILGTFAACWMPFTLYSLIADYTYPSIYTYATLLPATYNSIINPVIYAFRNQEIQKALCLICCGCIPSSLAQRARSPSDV
Description: as §1

CCKBR = target: T31, CCKBR (Homo sapiens, UniProt P32239)
T31 construct: purchased PRESTO-Tango GPCR kit (Roth lab / Addgene)
Description: as §1

GPR135 = target: T32, GPR135 (Homo sapiens, UniProt Q8IZ08)
T32 construct: purchased PRESTO-Tango GPCR kit (Roth lab / Addgene)
T32 sequence (Q8IZ08 whole entry): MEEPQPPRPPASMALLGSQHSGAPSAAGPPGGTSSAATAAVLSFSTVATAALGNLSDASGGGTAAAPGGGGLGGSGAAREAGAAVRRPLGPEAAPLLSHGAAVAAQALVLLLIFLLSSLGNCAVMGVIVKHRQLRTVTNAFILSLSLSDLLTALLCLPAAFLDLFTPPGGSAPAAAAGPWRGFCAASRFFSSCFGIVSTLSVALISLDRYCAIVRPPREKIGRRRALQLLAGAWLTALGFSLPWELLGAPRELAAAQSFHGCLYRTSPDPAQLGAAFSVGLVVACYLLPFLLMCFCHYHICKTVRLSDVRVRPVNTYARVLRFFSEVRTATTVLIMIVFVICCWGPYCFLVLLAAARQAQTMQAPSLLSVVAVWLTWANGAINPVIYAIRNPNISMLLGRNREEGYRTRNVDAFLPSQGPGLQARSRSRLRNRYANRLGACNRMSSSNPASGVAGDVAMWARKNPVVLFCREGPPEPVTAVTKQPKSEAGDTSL
Description: as §1

FPR2 = target: T33, FPR2 (Homo sapiens, UniProt P25090)
T33 construct: purchased PRESTO-Tango GPCR kit (Roth lab / Addgene)
Description: as §1

CCR6 = target: T34, CCR6 (Homo sapiens, UniProt P51684)
T34 construct: purchased PRESTO-Tango GPCR kit (Roth lab / Addgene)
Description: as §1

NPBW1 = target: T35, NPBW1 (Homo sapiens, UniProt P48145)
T35 construct: purchased PRESTO-Tango GPCR kit (Roth lab / Addgene)
T35 sequence (P48145 whole entry): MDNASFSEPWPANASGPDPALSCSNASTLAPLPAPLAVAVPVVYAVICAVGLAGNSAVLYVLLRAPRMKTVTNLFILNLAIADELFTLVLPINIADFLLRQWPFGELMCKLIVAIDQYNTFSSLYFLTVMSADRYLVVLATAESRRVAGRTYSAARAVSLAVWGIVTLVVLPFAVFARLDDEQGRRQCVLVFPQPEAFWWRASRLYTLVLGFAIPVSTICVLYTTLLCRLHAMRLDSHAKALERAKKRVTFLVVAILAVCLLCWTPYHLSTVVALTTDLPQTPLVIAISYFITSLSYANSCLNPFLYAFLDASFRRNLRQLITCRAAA
Description: as §1

HTR7 = target: T36, HTR7 (Homo sapiens, UniProt P34969)
T36 construct: purchased PRESTO-Tango GPCR kit (Roth lab / Addgene)
T36 sequence (P34969 whole entry): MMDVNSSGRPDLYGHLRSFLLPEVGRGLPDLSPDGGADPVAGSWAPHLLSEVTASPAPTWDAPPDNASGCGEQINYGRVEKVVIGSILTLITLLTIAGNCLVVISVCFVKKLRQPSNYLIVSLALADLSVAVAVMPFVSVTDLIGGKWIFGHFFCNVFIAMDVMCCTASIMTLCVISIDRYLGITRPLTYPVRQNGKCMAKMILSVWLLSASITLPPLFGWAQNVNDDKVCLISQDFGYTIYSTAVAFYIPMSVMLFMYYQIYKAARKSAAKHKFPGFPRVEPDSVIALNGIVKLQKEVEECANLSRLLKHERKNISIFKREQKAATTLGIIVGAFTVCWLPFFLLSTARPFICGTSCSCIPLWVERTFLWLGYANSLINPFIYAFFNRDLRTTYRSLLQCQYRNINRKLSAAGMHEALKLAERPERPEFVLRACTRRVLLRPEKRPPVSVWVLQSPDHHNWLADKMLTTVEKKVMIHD
Description: as §1

| Compound | GPCR activation (heatmap value) (CYSLTR2) | GPCR activation (heatmap value) (CNR2) | GPCR activation (heatmap value) (GRPR) | GPCR activation (heatmap value) (GPR97) | GPCR activation (heatmap value) (LPAR6) | GPCR activation (heatmap value) (SSTR5) | GPCR activation (heatmap value) (LPAR5) | GPCR activation (heatmap value) (HTR1F) | GPCR activation (heatmap value) (CXCR7) | GPCR activation (heatmap value) (UTS2R) | GPCR activation (heatmap value) (GPR45) | GPCR activation (heatmap value) (MC1R) | GPCR activation (heatmap value) (CALCRL) | GPCR activation (heatmap value) (NMBR) | GPCR activation (heatmap value) (CXCR1) | GPCR activation (heatmap value) (LTB4R) | GPCR activation (heatmap value) (GPR152) | GPCR activation (heatmap value) (GPR149) | GPCR activation (heatmap value) (CXCR2) | GPCR activation (heatmap value) (HTR6) | further results |
| --- | --- | --- | --- | --- | --- | --- | --- | --- | --- | --- | --- | --- | --- | --- | --- | --- | --- | --- | --- | --- | --- |
| CC(C)Cc1ncc(CCCCNC(=N)N)[nH]c1=O [3-Homo] | -0.09894 | 0.8114 | -0.6902 | -0.2469 | 0.3664 | -0.02493 | 0.1689 | -0.1727 | -1.352 | -1.423 | -0.6461 | -0.8565 | 1.281 | 0.06446 | 0.5406 | 0.1103 | -0.3396 | 0.01685 | 0.01869 | -0.2493 | GPCR activation (heatmap value) (ADORA1): 0.08121; GPCR activation (heatmap value) (AVPR1B): -0.01402; GPCR activation (heatmap value) (GPR111): -0.06522; GPCR activation (heatmap value) (GPR21): 0.4357; GPCR activation (heatmap value) (TAAR5): -0.4757; GPCR activation (heatmap value) (GPR115): -0.2915; GPCR activation (heatmap value) (GPR182): -0.244; GPCR activation (heatmap value) (GNRHR): -0.5775; GPCR activation (heatmap value) (NPY4R): 1.0914; GPCR activation (heatmap value) (GPR12): 0.07278; GPCR activation (heatmap value) (CCKBR): 0.2356; GPCR activation (heatmap value) (GPR135): -0.1206; GPCR activation (heatmap value) (FPR2): 0.05882; GPCR activation (heatmap value) (CCR6): -1.378; GPCR activation (heatmap value) (NPBW1): -0.4089; GPCR activation (heatmap value) (HTR7): 0.09912 |
| CC(C)Cc1ncc(CCCNC(=N)N)[nH]c1=O [compound 3] | -0.2194 | -0.04866 | 0.1678 | -0.1675 | 0.5638 | -1.082 | 0.04943 | 0.1369 | -0.2802 | 0.9484 | 0.4781 | -1.487 | -0.1816 | 0.762 | 0.1868 | -0.07274 | -1.289 | 0.9394 | 0.3766 | 0.5944 | GPCR activation (heatmap value) (ADORA1): 0.2527; GPCR activation (heatmap value) (AVPR1B): 0.6298; GPCR activation (heatmap value) (GPR111): -1.0133; GPCR activation (heatmap value) (GPR21): 1.034; GPCR activation (heatmap value) (TAAR5): -0.8641; GPCR activation (heatmap value) (GPR115): 0.3053; GPCR activation (heatmap value) (GPR182): -0.4224; GPCR activation (heatmap value) (GNRHR): 0.3051; GPCR activation (heatmap value) (NPY4R): 0.793; GPCR activation (heatmap value) (GPR12): 0.5588; GPCR activation (heatmap value) (CCKBR): 0.2979; GPCR activation (heatmap value) (GPR135): -1.115; GPCR activation (heatmap value) (FPR2): 0.522; GPCR activation (heatmap value) (CCR6): 0.5005; GPCR activation (heatmap value) (NPBW1): -0.8992; GPCR activation (heatmap value) (HTR7): -0.07329 |
